Test results reported in PMC12951562, “SH2scan: Mapping SH2 Domain-Ligand Binding Selectivity for Inhibitors and Degraders” (Journal of Medicinal Chemistry, 2026).
Non-standard residues stand in square brackets, D forms with d. Residues, ends and D or L forms follow the SMILES beside them. pY = N[C@@H](Cc1ccc(OP(=O)(O)O)cc1)C(=O)O

Legend:
Assay in all cases: biochemical
Assay type in all cases: binding
PTPN11(SH2dom.C-term.) = molecular target: T1, PTPN11(SH2dom.C-term.) (Homo sapiens, UniProt Q06124)
T1 construct: SH2dom.C-term. denotes SH2 domain closest to C-terminus of protein; made in house; host or cells: HEK293 (transient transfection, unpurified extract)
T1 sequence (Q06124 112-216 limits assumed): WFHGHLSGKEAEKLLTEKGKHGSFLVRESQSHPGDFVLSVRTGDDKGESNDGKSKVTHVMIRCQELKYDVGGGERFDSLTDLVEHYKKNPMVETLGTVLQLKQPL

BLK = molecular target: T2, BLK (Homo sapiens, UniProt P51451); conditions: dose-response; read-out: KD
T2 construct: the DNA-tagged SH2 domain concentrations used in this study were <0.1 nM; made in house; host or cells: HEK293 (transient transfection; unpurified extract)

FYN = molecular target: T3, FYN (Homo sapiens, UniProt P06241); conditions: dose-response; read-out: KD
T3 construct: the DNA-tagged SH2 domain concentrations used in this study were <0.1 nM; made in house; host or cells: HEK293 (transient transfection; unpurified extract)

YES = molecular target: T4, YES (Homo sapiens, UniProt P07947); conditions: dose-response; read-out: KD
T4 construct: the DNA-tagged SH2 domain concentrations used in this study were <0.1 nM; made in house; host or cells: HEK293 (transient transfection; unpurified cell extract)

FGR = molecular target: T5, FGR (Homo sapiens, UniProt P09769)
T5 construct: the DNA-tagged SH2 domain concentrations used in this study were <0.1 nM; made in house; host or cells: HEK293 (transient transfection; unpurified extract)

LYN = molecular target: T6, LYN (Homo sapiens, UniProt P07948)
T6 construct: the DNA-tagged SH2 domain concentrations used in this study were <0.1 nM; made in house; host or cells: HEK293 (transient transfection, unpurified extract)

PIK3R1(SH2dom.N-term.) = molecular target: T7, PIK3R1(SH2dom.N-term.) (Homo sapiens, UniProt P27986)
T7 construct: SH2dom.N-term. denotes SH2 domain closest to N-terminus of protein; made in house; host or cells: HEK293 (transient transfection, unpurified extract)

PIK3R2(SH2dom.N-term.) = molecular target: T8, PIK3R2(SH2dom.N-term.) (Homo sapiens, UniProt O00459)
T8 construct: SH2dom.N-term. denotes SH2 domain closest to N-terminus of protein; made in house; host or cells: HEK293 (transient transfection, unpurified extract)

PIK3R3(SH2dom.N-term.) = molecular target: T9, PIK3R3(SH2dom.N-term.) (Homo sapiens, UniProt Q92569)
T9 construct: SH2dom.N-term. denotes SH2 domain closest to N-terminus of protein; made in house; host or cells: HEK293 (transient transfection, unpurified extract)

RASA1(SH2dom.N-term.) = molecular target: T10, RASA1(SH2dom.N-term.) (Homo sapiens, UniProt P20936)
T10 construct: SH2dom.N-term. denotes SH2 domain closest to N-terminus of protein; made in house; host or cells: HEK293 (transient transfection), unpurified extract
T10 sequence (P20936 181-272 limits assumed): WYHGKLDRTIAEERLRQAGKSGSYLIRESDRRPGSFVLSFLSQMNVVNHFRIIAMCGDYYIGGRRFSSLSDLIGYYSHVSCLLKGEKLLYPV

GADS = molecular target: T11, GADS (Homo sapiens, UniProt O75791)
T11 construct: the DNA-tagged SH2 domain concentrations used in this study were <0.1 nM; made in house; host or cells: HEK293 (transient transfection; unpurified extract)
T11 sequence (O75791 58-149 limits assumed): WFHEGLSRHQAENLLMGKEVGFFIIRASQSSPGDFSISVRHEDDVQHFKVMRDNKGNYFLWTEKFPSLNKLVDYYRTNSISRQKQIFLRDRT

HSH2D = molecular target: T12, HSH2D (Homo sapiens, UniProt Q96JZ2)
T12 construct: the DNA-tagged SH2 domain concentrations used in this study were <0.1 nM; made in house; host or cells: HEK293 (transient transfection, unpurified extract)
T12 sequence (Q96JZ2 34-125 limits assumed): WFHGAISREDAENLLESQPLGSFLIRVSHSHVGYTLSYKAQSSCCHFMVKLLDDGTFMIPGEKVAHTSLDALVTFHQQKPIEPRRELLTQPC

PTPN6(SH2dom.N-term.) = molecular target: T13, PTPN6(SH2dom.N-term.) (Homo sapiens, UniProt P29350)
T13 construct: SH2dom.N-term. denotes SH2 domain closest to N-terminus of protein; made in house; host or cells: HEK293 (transient transfection, unpurified extract)
T13 sequence (P29350 4-100 limits assumed): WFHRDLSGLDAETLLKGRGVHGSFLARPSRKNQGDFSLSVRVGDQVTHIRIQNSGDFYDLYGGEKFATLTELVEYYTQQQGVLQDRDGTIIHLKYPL

T3 sequence (P06241 149-246 limits assumed): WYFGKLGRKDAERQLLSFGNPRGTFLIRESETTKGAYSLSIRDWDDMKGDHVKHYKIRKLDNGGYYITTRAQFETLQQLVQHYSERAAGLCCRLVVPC
T6 sequence (P07948 129-226 limits assumed): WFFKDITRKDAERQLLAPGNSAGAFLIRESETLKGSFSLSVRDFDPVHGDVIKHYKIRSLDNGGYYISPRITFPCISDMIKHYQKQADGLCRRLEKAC
T5 sequence (P09769 144-241 limits assumed): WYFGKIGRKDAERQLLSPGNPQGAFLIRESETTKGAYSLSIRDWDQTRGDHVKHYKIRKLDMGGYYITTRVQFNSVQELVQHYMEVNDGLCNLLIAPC
T2 sequence (P51451 124-220 limits assumed): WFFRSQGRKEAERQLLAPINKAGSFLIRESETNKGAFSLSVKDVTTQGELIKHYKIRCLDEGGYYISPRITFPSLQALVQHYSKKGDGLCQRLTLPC
T8 sequence (O00459 330-425 limits assumed): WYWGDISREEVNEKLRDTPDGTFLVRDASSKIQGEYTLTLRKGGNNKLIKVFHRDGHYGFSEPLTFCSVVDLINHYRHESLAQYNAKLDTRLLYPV
T4 sequence (P07947 158-255 limits assumed): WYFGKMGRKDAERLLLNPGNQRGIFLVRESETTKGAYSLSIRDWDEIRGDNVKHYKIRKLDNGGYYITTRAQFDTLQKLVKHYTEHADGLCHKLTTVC
T7 sequence (P27986 333-428 limits assumed): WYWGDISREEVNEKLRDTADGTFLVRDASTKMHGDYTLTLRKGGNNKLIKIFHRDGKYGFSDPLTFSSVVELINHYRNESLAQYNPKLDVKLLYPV

`CC[C@H](C)[C@H](NC(=O)[C@@H](NC(=O)[C@H](C)NC(=O)[C@H](Cc1ccc(OP(=O)(O)O)cc1)NC(=O)[C@@H](NC(=O)[C@@H]1CCCN1C(=O)[C@H](CCC(=O)O)NC(=O)[C@@H]1CCCN1C(=O)[C@H](CO)NC(=O)[C@H](C)NC(C)=O)[C@@H](C)CC)[C@@H](C)O)C(=O)N[C@@H](CC(=O)O)C(=O)N[C@@H](Cc1ccccc1)C(=O)N[C@@H](CC(=O)O)C(N)=O` [Ac-ASPEPIpYATIDFD-NH2] showed a Kd (PTPN11(SH2dom.C-term.)) of 403 ± 198 nM.

Compound `CC[C@H](C)[C@H](NC(=O)[C@@H]1CCCN1C(=O)[C@@H](NC(=O)[C@H](CCC(=O)O)NC(=O)[C@H](CCC(=O)O)NC(=O)[C@H](Cc1ccc(OP(=O)(O)O)cc1)NC(=O)[C@H](CCC(N)=O)NC(=O)[C@@H]1CCCN1C(=O)[C@H](CCC(=O)O)NC(C)=O)[C@@H](C)CC)C(=O)N[C@@H](Cc1ccc(O)cc1)C(=O)N[C@@H](CC(C)C)C(=O)N[C@@H](CCCCN)C(N)=O` (Ac-EPQ[pY]EEIPIYLK-NH2) has a Kd (BLK) of 488 ± 188 nM, a Kd (FYN) of 31.8 ± 2.15 nM and a Kd (YES) of 234 ± 37.6 nM.

Work on `CC(=O)N1CCC[C@H]1C(=O)N[C@@H](CCC(=O)O)C(=O)NCC(=O)N[C@@H](CC(=O)O)C(=O)N[C@@H](Cc1ccc(OP(=O)(O)O)cc1)C(=O)N[C@@H](CCC(=O)O)C(=O)N[C@@H](CCC(=O)O)C(=O)N[C@H](C(=O)N[C@@H](CC(C)C)C(=O)N[C@@H](CCC(=O)O)C(N)=O)C(C)C` [Ac-PEGDpYEEVLE-NH2] (Ac-PEGD[pY]EEVLE-NH2) yielded a Kd (FGR) of 1820 ± 510 nM and a Kd (LYN) of 765 ± 141 nM.

For `CSCC[C@H](NC(=O)[C@H](CC(=O)O)NC(=O)[C@H](CC(C)C)NC(=O)[C@H](CCSC)NC(=O)[C@@H]1CCCN1C(=O)[C@@H](NC(=O)[C@H](Cc1ccc(OP(=O)(O)O)cc1)NC(=O)[C@H](CC(=O)O)NC(=O)[C@@H](NC(=O)[C@H](CO)NC(=O)[C@H](CCC(=O)O)NC(=O)[C@H](CC(=O)O)NC(=O)[C@H](CCCCN)NC(=O)[C@H](CO)NC(=O)[C@H](CCSC)NC(=O)[C@H](CC(=O)O)NC(C)=O)C(C)C)C(C)C)C(=O)N[C@@H](CCCCN)C(N)=O` (Ac-DMSKDESVD[pY]VPMLDMK-NH2), the Kd (PIK3R1(SH2dom.N-term.)) was 41.2 ± 9.77 nM, the Kd (PIK3R2(SH2dom.N-term.)) was 46.7 ± 6.22 nM and the Kd (PIK3R3(SH2dom.N-term.)) was 78.5 ± 26.1 nM.

`CC[C@H](C)[C@H](NC(=O)[C@H](CC(N)=O)NC(=O)[C@H](CCC(=O)O)NC(=O)[C@H](CCC(=O)O)NC(=O)[C@H](CCC(=O)O)NC(C)=O)C(=O)N[C@@H](Cc1ccc(OP(=O)(O)O)cc1)C(=O)N[C@@H](CO)C(=O)N[C@H](C(=O)N1CCC[C@H]1C(=O)N[C@@H](Cc1c[nH]cn1)C(=O)N[C@@H](CC(=O)O)C(=O)N[C@@H](CO)C(=O)N[C@H](C(N)=O)[C@@H](C)O)C(C)C` (Ac-EEENI[pY]SVPHDST-NH2) showed a Kd (RASA1(SH2dom.N-term.)) of 472 ± 309 nM.

`CSCC[C@H](NC(=O)[C@H](Cc1ccc(OP(=O)(O)O)cc1)NC(=O)[C@H](CC(=O)O)NC(=O)[C@H](CO)NC(C)=O)C(=O)N[C@@H](CC(N)=O)C(=O)N[C@@H](CCSC)C(=O)N[C@H](C(=O)N1CCC[C@H]1C(=O)N[C@@H](CCCNC(=N)N)C(=O)N[C@@H](CCCNC(=N)N)C(=O)N1CCC[C@H]1C(N)=O)[C@@H](C)O` (Ac-SD[pY]MNMTPRRP-NH2) gave a Kd (GADS) of 244 ± 73.3 nM and a Kd (HSH2D) of 873 ± 159 nM.

`CC(=O)N[C@@H](CCC(=O)O)C(=O)N[C@@H](CCC(N)=O)C(=O)N[C@@H](CC(=O)O)C(=O)N1CCC[C@H]1C(=O)N[C@@H](CCC(N)=O)C(=O)N[C@@H](CCC(=O)O)C(=O)N[C@H](C(=O)N[C@H](C(=O)N[C@@H](Cc1ccc(OP(=O)(O)O)cc1)C(=O)N[C@@H](C)C(=O)N[C@@H](CCC(N)=O)C(=O)N[C@@H](CC(C)C)C(=O)N[C@@H](CC(N)=O)C(=O)N[C@@H](Cc1c[nH]cn1)C(N)=O)[C@@H](C)O)C(C)C` (Ac-EQDPQEVT[pY]AQLNH-NH2) showed a Kd (PTPN6(SH2dom.N-term.)) of 3860 ± 864 nM.
